Marks after values point to notes of the source that are not given here. Strand notation (5' to 3'): a small letter for the sugar, then the base; units joined by * are phosphorothioate-linked, units joined directly phosphodiester-linked; [ ] holds rarer units or linkages, { } end groups; capitals alone tell only the bases. k = constrained ethyl (cEt); [5mC] = 5-methylcytosine; d = 2'-deoxy (DNA)

The first series deals with Yap1 mRNA. The series is described as follows: Antisense inhibition of human Yap1 in A-431 cells by cEt gapmers, single dose (Example 4, RTS4814). Particulars: Table 14; A-431 cells, 5,000 cells per well, free uptake, 2,000 nM, approximately 48 hours; RTS4814; normalized to RIBOGREEN; Yap1 mRNA relative to untreated control; * = targets amplicon region of primer probe set. It is filed as cell-based. As for the experimental part:
Modified oligonucleotides were designed to target a Yap1 nucleic acid and were tested for their effect on Yap1 mRNA level in vitro. The modified oligonucleotides were tested in a series of experiments that had similar culture conditions. Cultured A-431 cells at a density of 5,000 cells per well were treated using free uptake with 2,000 nM of modified oligonucleotide. After a treatment period of approximately 48 hours, RNA was isolated from the cells and Yap1 mRNA levels were measured by quantitative real-time RTPCR. Human primer probe set RTS4814 was used to measure mRNA levels. Yap1 mRNA levels were normalized to total RNA content, as measured by RIBOGREEN®. Results are presented in the tables below as percent control of the amount of Yap1 mRNA relative to untreated control cells (% UTC). The modified oligonucleotides with percent control values marked with an asterisk (*) target the amplicon region of the primer probe set. Additional assays may be used to measure the potency and efficacy of the modified oligonucleotides targeting the amplicon region.
The newly designed modified oligonucleotides in the Tables below were designed as 3-10-3 cEt gapmers. The gapmers are 16 nucleosides in length, wherein the central gap segment comprises of ten 2′-deoxynucleosides and is flanked by wing segments on the 5′ direction and the 3′ direction comprising three nucleosides each. Each nucleoside in the 5′ wing segment and each nucleoside in the 3′ wing segment has a cEt sugar modification. The internucleoside linkages throughout each gapmer are phosphorothioate (P═S) linkages. All cytosine residues throughout each gapmer are 5-methylcytosines.
“Start site” indicates the 5′-most nucleoside to which the gapmer is targeted in the human gene sequence. “Stop site” indicates the 3′-most nucleoside to which the gapmer is targeted human gene sequence. […] Activity of the modified oligonucleotide may be defined in a different experiment.
Take “1075968 (kT*kA*kT*dT*dT*dA*dA*dG*d[5mC]*d[5mC]*dA*dA*dA*k[5mC]*k[5mC]*kG; antisense) [Compound 1075968]”: the “YAP1 (% UTC)” value worked out at 5 % UTC.

Consider “1074112 (kT*k[5mC]*k[5mC]*dA*dA*d[5mC]*dT*d[5mC]*d[5mC]*d[5mC]*dT*dT*dG*kA*k[5mC]*kG; antisense) [Compound 1074112]”, for which the “YAP1 (% UTC)” value is listed as 83 % UTC.

Regarding “1075136 (antisense k[5mC]*kT*kA*dG*dA*dA*dT*dA*dT*dT*dA*dA*dA*kG*kG*kG) [Compound 1075136]”, the “YAP1 (% UTC)” value stood at 87 % UTC.

For the substance “1075904 (kG*kT*kA*dT*dA*dG*dG*dA*dT*d[5mC]*dT*dA*d[5mC]*kT*kA*kA; antisense) [Compound 1075904]”, the “YAP1 (% UTC)” value worked out at 51 % UTC.

Take “1074432 (antisense kG*kT*kT*dA*dA*dA*dA*dT*dG*dA*dT*dT*dG*kG*kT*kG) [Compound 1074432]”: the “YAP1 (% UTC)” value is reported as 3* % UTC.

“1074496 (kA*kA*kT*dA*dA*d[5mC]*d[5mC]*dA*dT*d[5mC]*d[5mC]*d[5mC]*dA*kA*kG*k[5mC]; antisense) [Compound 1074496]”: the “YAP1 (% UTC)” value is recorded as 69 % UTC.

The series is the same for the next values; noted with them: Table 15; A-431 cells, 5,000 cells per well, free uptake, 2,000 nM, approximately 48 hours; RTS4814; normalized to RIBOGREEN; Yap1 mRNA relative to untreated control; * = targets amplicon region of primer probe set.
For the substance “1075969 (kG*kT*kA*dT*dT*dT*dA*dA*dG*d[5mC]*d[5mC]*dA*dA*kA*k[5mC]*k[5mC]; antisense) [Compound 1075969]”, the “YAP1 (% UTC)” value worked out at 11 % UTC.

As for “1076385 (kA*kT*kA*dT*dA*dA*dG*dG*dG*dA*d[5mC]*dT*dT*kG*k[5mC]*kT; antisense) [Compound 1076385]”, the “YAP1 (% UTC)” value is 32 % UTC.

For the substance “1074369 (antisense kT*kG*kA*dT*dA*dG*dT*dA*dT*d[5mC]*dA*d[5mC]*d[5mC]*kT*kG*kT) [Compound 1074369]”, the “YAP1 (% UTC)” value was 19 % UTC.

Regarding “1075489 (antisense kG*kA*kG*d[5mC]*dA*dA*d[5mC]*dA*dA*d[5mC]*dT*dA*dT*kG*kA*kG) [Compound 1075489]”, the “YAP1 (% UTC)” value is listed as 51 % UTC.

Consider “1075361 (kT*k[5mC]*kT*dT*dA*dA*dG*dG*dG*dA*dA*dT*dG*kT*kA*kT; antisense) [Compound 1075361]”, for which the “YAP1 (% UTC)” value is 69 % UTC.

“1074561 (antisense kA*kA*kT*dT*d[5mC]*d[5mC]*dA*dA*dT*d[5mC]*dG*dA*dG*kA*k[5mC]*kT) [Compound 1074561]”: the “YAP1 (% UTC)” value was 10 % UTC.

Turning to “1075745 (k[5mC]*kT*kT*d[5mC]*dA*dA*dA*dA*dG*d[5mC]*dA*d[5mC]*dG*kG*kT*kG; antisense) [Compound 1075745]”, the “YAP1 (% UTC)” value came out at 58 % UTC.

For “1075393 (k[5mC]*kT*kT*dA*dA*d[5mC]*d[5mC]*dT*dA*dT*dG*d[5mC]*d[5mC]*kA*kA*kA; antisense) [Compound 1075393]”, the “YAP1 (% UTC)” value is 37 % UTC.

With “1075905 (k[5mC]*k[5mC]*kT*dG*dA*dA*d[5mC]*dA*d[5mC]*dA*dG*dG*dA*kG*kT*kA; antisense) [Compound 1075905]”, the “YAP1 (% UTC)” value stood at 43 % UTC.

Still in this series, the particulars now being: Table 16; A-431 cells, 5,000 cells per well, free uptake, 2,000 nM, approximately 48 hours; RTS4814; normalized to RIBOGREEN; Yap1 mRNA relative to untreated control cells.
Turning to “1074978 (antisense kT*kT*kG*d[5mC]*d[5mC]*dA*dG*dT*dT*d[5mC]*dT*dT*dG*kT*kT*k[5mC]) [Compound 1074978]”, the “YAP1 (% UTC)” value amounted to 38 % UTC.

With “1075522 (k[5mC]*kA*kA*dA*dT*d[5mC]*dG*dA*dG*dG*d[5mC]*dG*dA*kA*kT*k[5mC]; antisense) [Compound 1075522]”, the “YAP1 (% UTC)” value came out at 82 % UTC.

As for “1074914 (antisense kT*kT*kA*d[5mC]*dA*dT*d[5mC]*d[5mC]*d[5mC]*dG*dA*dG*dT*kG*kG*kG) [Compound 1074914]”, the “YAP1 (% UTC)” value came to 97 % UTC.

Turning to “1076130 (k[5mC]*kT*kG*dG*dA*dA*dT*dA*dG*dT*dG*dG*dG*kT*kG*k[5mC]; antisense) [Compound 1076130]”, the “YAP1 (% UTC)” value is listed as 34 % UTC.

For the substance “1075842 (kG*kT*kA*dT*dT*dT*dA*dG*dG*dT*dA*d[5mC]*dT*k[5mC]*kA*kG; antisense) [Compound 1075842]”, the “YAP1 (% UTC)” value was 2 % UTC.

“1075586 (kT*kA*kT*dT*dA*dG*d[5mC]*dA*d[5mC]*d[5mC]*dT*dG*dG*kG*kT*kA; antisense) [Compound 1075586]”: the “YAP1 (% UTC)” value was found to be 64 % UTC.

Still in this series, the particulars now being: Table 17; A-431 cells, 5,000 cells per well, free uptake, 2,000 nM, approximately 48 hours; RTS4814; normalized to RIBOGREEN; Yap1 mRNA relative to untreated control cells.
With “1074275 (antisense k[5mC]*kA*kA*dG*dA*dG*dG*dT*dG*dG*dT*d[5mC]*dT*kT*kG*kT) [Compound 1074275]”, the “YAP1 (% UTC)” value stood at 73 % UTC.

Take “1076003 (kA*kA*kT*dT*dT*dA*dA*dT*dG*dG*d[5mC]*dT*dT*kG*k[5mC]*kA; antisense) [Compound 1076003]”: the “YAP1 (% UTC)” value was found to be 8 % UTC.

For the substance “1075651 (kT*kA*kT*dA*dT*dT*dA*d[5mC]*dA*dA*dT*d[5mC]*d[5mC]*k[5mC]*kA*kG; antisense) [Compound 1075651]”, the “YAP1 (% UTC)” value is reported as 57 % UTC.

Take “1074435 (kG*kA*k[5mC]*dT*dT*d[5mC]*dT*dA*dA*dG*dT*d[5mC]*dT*kG*kA*kG; antisense) [Compound 1074435]”: the “YAP1 (% UTC)” value was 19* % UTC.

Turning to “1075299 (kG*kA*kT*dA*dA*d[5mC]*d[5mC]*dA*dA*dT*dG*d[5mC]*dA*k[5mC]*k[5mC]*kA; antisense) [Compound 1075299]”, the “YAP1 (% UTC)” value is given as 21 % UTC.

For “1074179 (antisense k[5mC]*kG*kG*dG*dA*dT*d[5mC]*d[5mC]*dA*dT*dG*dG*d[5mC]*kT*kT*k[5mC]) [Compound 1074179]”, the “YAP1 (% UTC)” value came out at 49 % UTC.

On to “1074819 (kA*kA*kG*d[5mC]*dA*d[5mC]*dT*dG*dA*dA*dT*dA*dT*kT*kG*k[5mC]; antisense) [Compound 1074819]”, for which the “YAP1 (% UTC)” value stood at 33 % UTC.

The same series, now with this note: Yap1 mRNA remaining as percent of untreated control; 3-10-3 cEt gapmers; A-431 cells; Table 36.
Consider “1076342 (antisense k[5mC]*kA*kT*dT*dA*dA*d[5mC]*dT*dA*d[5mC]*dA*dA*d[5mC]*kT*kG*kT) [compound 1076342]”, for which the “YAP1 (% UTC)” value is on record as 33 % UTC.

On to “1076086 (kA*kA*k[5mC]*dT*dA*dA*dT*dA*dG*dG*d[5mC]*d[5mC]*dA*kT*k[5mC]*kT; antisense) [compound 1076086]”, for which the “YAP1 (% UTC)” value amounted to 31 % UTC.

Consider “1074166 (antisense kA*k[5mC]*k[5mC]*d[5mC]*dA*dG*dG*d[5mC]*dG*dA*dG*d[5mC]*dG*kA*kG*kG) [compound 1074166]”, for which the “YAP1 (% UTC)” value is reported as 72 % UTC.

On to “1075702 (kG*kA*kG*dG*dA*dA*dG*dG*dG*d[5mC]*dA*d[5mC]*d[5mC]*kT*kT*kT; antisense) [compound 1075702]”, for which the “YAP1 (% UTC)” value is 81 % UTC.

On to “1076054 (k[5mC]*kA*kT*dT*dA*dG*dA*d[5mC]*dT*dT*dT*d[5mC]*dT*kG*kT*k[5mC]; antisense) [compound 1076054]”, for which the “YAP1 (% UTC)” value is recorded as 21 % UTC.

With “1075318 (antisense kA*kT*k[5mC]*d[5mC]*dT*dA*dA*dA*dG*d[5mC]*d[5mC]*dA*d[5mC]*kT*kG*k[5mC]) [compound 1075318]”, the “YAP1 (% UTC)” value is on record as 72 % UTC.

On to “1074518 (kA*kA*kA*dT*dG*d[5mC]*dA*dT*dA*d[5mC]*dA*dA*dA*kG*k[5mC]*kG; antisense) [compound 1074518]”, for which the “YAP1 (% UTC)” value amounted to 13 % UTC.

For “1075446 (antisense k[5mC]*kT*kA*dT*dA*dA*dA*dT*d[5mC]*d[5mC]*dT*d[5mC]*dA*kT*kG*kT) [compound 1075446]”, the “YAP1 (% UTC)” value was found to be 87 % UTC.

Still in this series, the particulars now being: Yap1 mRNA remaining as percent of untreated control; 3-10-3 cEt gapmers; A-431 cells; Table 37.
In the case of “1076407 (antisense kG*kT*kA*dT*dT*dA*dT*dT*dT*dA*dA*dG*dA*k[5mC]*k[5mC]*kT) [compound 1076407]”, the “YAP1 (% UTC)” value is 22 % UTC.

For the substance “1074743 (kG*kA*kA*dA*dG*dG*dA*d[5mC]*dT*d[5mC]*dT*dT*dA*kG*kG*kT; antisense) [compound 1074743]”, the “YAP1 (% UTC)” value turned out to be 16 % UTC.

With “1074647 (antisense k[5mC]*kA*kA*dA*dT*dT*dG*dA*dA*dG*dG*dG*d[5mC]*k[5mC]*kA*kA) [compound 1074647]”, the “YAP1 (% UTC)” value is listed as 27 % UTC.

Regarding “1076151 (kT*kA*kT*dT*dT*dA*dT*dT*dA*dA*d[5mC]*dT*d[5mC]*kA*k[5mC]*kG; antisense) [compound 1076151]”, the “YAP1 (% UTC)” value amounted to 14 % UTC.

“1074167 (antisense k[5mC]*kG*k[5mC]*dA*d[5mC]*d[5mC]*d[5mC]*d[5mC]*d[5mC]*dT*dG*dA*d[5mC]*k[5mC]*k[5mC]*kA) [compound 1074167]”: the “YAP1 (% UTC)” value is reported as 58 % UTC.

Take “1074263 (antisense kA*kG*k[5mC]*d[5mC]*dG*dA*dG*dT*dT*d[5mC]*dA*dT*d[5mC]*kA*kT*kA) [compound 1074263]”: the “YAP1 (% UTC)” value was 34 % UTC.
